What is called IC50 is the concentration that inhibits the measured activity by half. High values mean weaker potency, low ones greater potency.

The target in one test is T1, Human CB1 receptor (Homo sapiens, UniProt P21554).
T1 construct: host or cells: CHO (hCB1/CHO), membrane fraction
Put plainly: Human CB1 receptor binding assay ([3H]-CP55940, hCB1/CHO membrane fraction). The protocol: [Human CB1 Receptor Binding Assay]
(1) Preparation of Human CB1 Receptor (Membrane Fraction):
Human CB1-expressing cell line: hCB1/CHO (#ES-110-C, Euroscreen)
Buffer A: 50 mM tris-HCl (pH 7.5) containing ethylenediaminetetraacetic acid (2.5 mM), MgCl2 (5 mM) and sucrose (200 mM)
Method) The receptor-expressing cells cultivated in the above medium were washed with phosphate buffer (×2 times) and thereto was added Buffer A (2 mL) under ice-cooling or 4° C. (the following procedures were also carried out at the same temperature). The cells were collected by using a cell-scraper, treated by a microtip-type ultrasonicator for 20 seconds (pulse-on: 2 sec, pulse-off: 1 sec) and centrifuged (500×g, 15 min). The supernatant was separated and centrifuged (43000×g, 60 min). The resultant pellet was suspended in Buffer A and homogenized with a potter-type homogenizer. To the homogenate was added an equal volume of 80% glycerol and stored at −80° C.
(2) Procedure of CB1 Receptor Binding Assay:
Buffer B: 50 mM tris-HCl (pH 7.5) containing ethylenediaminetetraacetic acid (2.5 mM), MgCl2 (5 mM) and bovine serum albumine (2 mg/mL, fatty acid-free, SIGMA-A7030)
Buffer C: 50 mM tris-HCl (pH 7.5) containing ethylenediaminetetraacetic acid (2.5 mM), MgCl2 (5 mM) and bovine serum albumine (2 mg/mL, SIGMA-A7906)
Coating solution: 0.3% ethyleneimine polymer
Radioligand: [^3H]-CP55940 (30 nM, 7992 dpm/μL, PerkinElmer, #NET-1051) prepared by diluting 8.3 μM solution of the radioligand with Buffer B
Method) Each well of the assay plate (96-well, Corning Costar Code#3371) was filled with Buffer B (140 μL), a solution of each test compound in dimethylsulfoxide (20 μL, […]), radioligand (20 μL) and membrane preparation (20 μL, 0.5 to 8.0 μg/20 μL) and the mixture was incubated at room temperature for 90 minutes to proceed the binding reaction. The reaction mixture was filtered through Unifilter GF/B (Packard#6005177) presoaked with the above coating solution to collect the membrane fraction. The plate was washed with Buffer C (200 μL×10 times) and dried at 50° C. for 1 hour and Microscinti 40 (40 μL/well) was added to each well. The bound radiolabel was quantitated by a scintilation counter (Top Count NXT, Packard). IC50 value of each test compound against the radioligand-binding to CB1 receptors was calculated on the basis of the quantitated radiolabel activity by using Microsoft Excel 2000 (Microsoft).
(§1) a) Human CB1 receptor-binding assay: The binding assay was conducted in the same manner as described in Experiment 1.

The target of another test is T2, Human CB2 receptor (Homo sapiens, UniProt P34972).
T2 construct: expressed in transfected cells; host or cells: CHO (hCB2/CHO), membrane fraction
T2 sequence (P34972 whole entry): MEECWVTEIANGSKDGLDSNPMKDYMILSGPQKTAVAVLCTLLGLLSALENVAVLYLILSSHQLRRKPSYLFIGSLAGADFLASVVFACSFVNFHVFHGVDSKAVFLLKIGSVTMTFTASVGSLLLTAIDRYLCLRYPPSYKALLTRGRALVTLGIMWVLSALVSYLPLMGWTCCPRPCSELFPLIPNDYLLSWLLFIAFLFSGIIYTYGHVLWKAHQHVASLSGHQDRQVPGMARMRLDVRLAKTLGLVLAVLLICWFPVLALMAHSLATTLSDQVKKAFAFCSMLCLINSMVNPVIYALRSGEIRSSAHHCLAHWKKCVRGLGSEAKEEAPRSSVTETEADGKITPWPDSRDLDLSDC
Put plainly: Human CB2 receptor-binding assay (hCB2/CHO) for selectivity to CB1 receptors. Particulars: ratio of IC50 value for CB2/IC50 value for CB1. The protocol: (1) Materials and Methods
as §1
b) Human CB2 receptor-binding assay: The binding assay was conducted in the same manner as described in Experiment 1, except that human CB2-expressing CHO cell line (hCB2/CHO) was used instead of hCB1 cell line. IC50 value of each test compound against the radioligand-binding to CB2 receptors was calculated in the manner as described in Experiment 1. Besides, selectivity to CB1 receptors was evaluated in terms of the ratio of IC50 value for CB2/IC50 value for CB1.

Where [1] appears, read: Experiment 2, same method as Experiment 1.
Where [2] appears, read: Experiment 1, inhibition of [3H]-CP55940 binding to hCB1/CHO membranes.

T1 sequence (P21554 whole entry): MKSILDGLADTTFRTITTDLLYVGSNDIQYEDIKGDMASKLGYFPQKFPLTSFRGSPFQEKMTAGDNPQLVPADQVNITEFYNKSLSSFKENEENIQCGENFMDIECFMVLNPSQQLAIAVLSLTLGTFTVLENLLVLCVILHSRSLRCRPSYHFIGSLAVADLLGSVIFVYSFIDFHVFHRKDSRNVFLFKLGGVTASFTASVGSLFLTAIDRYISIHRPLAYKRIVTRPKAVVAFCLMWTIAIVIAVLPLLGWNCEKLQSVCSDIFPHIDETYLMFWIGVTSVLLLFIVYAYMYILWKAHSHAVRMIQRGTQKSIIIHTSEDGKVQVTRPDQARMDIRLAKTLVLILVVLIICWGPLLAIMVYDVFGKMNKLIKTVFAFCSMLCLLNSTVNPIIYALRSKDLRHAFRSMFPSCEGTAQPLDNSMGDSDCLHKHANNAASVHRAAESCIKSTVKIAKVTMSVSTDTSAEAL

Molecule `NC(=O)C1(NC(=O)c2cnn3c(-c4ccc(Cl)cc4)c(-c4ccccc4Cl)cnc23)CCS(=O)(=O)CC1` [Example A3, 3-[N-(4-carbamoyl-1,1-dioxo-tetrahydrothiopyran-4-yl)carbamoyl]-6-(2-chlorophenyl)-7-(4-chlorophenyl)pyrazolo[1,5-a]pyrimidine] showed a 50% inhibitory concentration (IC50) on Human CB1 receptor (setting [1]) of 10 to 100 nM. For the same molecule, the Selectivity at Human CB2 receptor is given as greater than 500. For the molecule `CNC(=O)C1(NC(=O)c2cnn3c(-c4ccc(Cl)cc4)c(-c4ccccc4Cl)cnc23)CCCCC1` [Example A5, 6-(2-chlorophenyl)-7-(4-chlorophenyl)-3-[N-[1-(N-methylcarbamoyl)cyclohexyl]-carbamoyl]pyrazolo[1,5-a]pyrimidine], the half-maximal inhibitory concentration (IC50) on Human CB1 receptor (setting [2]) was in the range of 10 to 100 nM. The same measure, in the same setting: with `CC1(NC(=O)c2cnn3c(-c4ccc(Cl)cc4)c(-c4ccccc4Cl)cnc23)CCCCC1` [Example A10] the figure was 10 to 100 nM; with `Cc1nn2c(-c3ccc(C(F)(F)F)cc3)c(-c3ccccc3Cl)cnc2c1C(=O)NC1(C#N)CCCCC1` [Example A13], 10 to 100 nM; with `CC(NC(=O)c1cnn2c(-c3ccc(Cl)cc3F)c(-c3ccccc3Cl)cnc12)c1ccccn1` (centres unmarked) [Example A15], 10 to 100 nM.

For `CC1(NC(=O)c2c(OCCO)nn3c(-c4ccc(Cl)cc4)c(-c4ccccc4Cl)cnc23)CCS(=O)(=O)C1` (centres unmarked) [Example A140], the concentration for half-maximal inhibition (IC50) on Human CB1 receptor (setting [1]) was less than 10 nM. On the same count and under the same terms, the value for `N#Cc1ccccc1-c1cnc2c(C(=O)NC3(C(N)=O)CCS(=O)(=O)CC3)cnn2c1-c1ccc(C(F)(F)F)cc1` [Example A146] was 10 to 100 nM; that for `Cc1nn2c(-c3ccc(Cl)cc3)c(-c3ccccc3Cl)cnc2c1C(=O)NC1(C(N)=O)CCS(=O)(=O)CC1` [Example A175] was 10 to 100 nM. `CNS(=O)(=O)c1nn2c(-c3ccc(Cl)cc3)c(-c3ccccc3Cl)cnc2c1C(=O)N[C@@H]1CCS(=O)(=O)C1` [Example B6] had an IC50 at Human CB1 receptor (setting [2]) of 10 to 100 nM. Still for that read-out and setting: the value for `CN(NC(=O)c1c(S(=O)(=O)N(C)C)nn2c(-c3ccc(Cl)cc3)c(-c3ccccc3Cl)cnc12)c1ccccn1` [Example B12] was 10 to 100 nM; that for `NS(=O)(=O)c1nn2c(-c3ccc(Cl)cc3)c(-c3ccccc3Cl)cnc2c1C(=O)NN1CCCC1` [Example B14] was less than 10 nM. On the same count and under the same terms, with `CN(NC(=O)c1c(S(N)(=O)=O)nn2c(-c3ccc(Cl)cc3)c(-c3ccccc3Cl)cnc12)c1ccccn1` [Example B15] the figure was less than 10 nM.

`N#Cc1ccccc1-c1cnc2c(C(=O)NC3CCCC3)c(S(N)(=O)=O)nn2c1-c1ccc(Cl)cc1` [Example B23] registered an IC50 on Human CB1 receptor (setting [2]) of less than 10 nM. The molecule `NC(=O)CNS(=O)(=O)c1nn2c(-c3ccc(Cl)cc3)c(-c3ccccc3Cl)cnc2c1C(=O)NC1CCCC1` [Example B26] showed an IC50 at Human CB1 receptor (setting [2]) of 10 to 100 nM. Regarding `NC(=O)C1(NC(=O)c2c(S(N)(=O)=O)nn3c(-c4ccc(Cl)cc4)c(-c4ccccc4Cl)cnc23)CCCCC1` [Example B30, 3-[N-(1-carbamoylcyclohexyl)carbamoyl]-6-(2-chlorophenyl)-7-(4-chlorophenyl)-2-sulfamoylpyrazolo[1,5-a]pyrimidine], the IC50 at Human CB1 receptor (setting [2]) was in the range of 10 to 100 nM. `CC1(NC(=O)c2c(CO)nn3c(-c4ccc(C(F)(F)F)cc4)c(-c4ccccc4Cl)cnc23)CCS(=O)(=O)CC1` [Example B32, 6-(2-chlorophenyl)-7-(4-trifluoromethylphenyl)-2-hydroxymethyl-3-[N-(4-methyl-1,1-dioxotetrahydrothiopyran-4-yl)-carbamoyl]pyrazolo[1,5-a]pyrimidine] displayed a concentration for half-maximal inhibition (IC50) on Human CB1 receptor (setting [1]) of less than 10 nM. On to `CNC(=O)c1nn2c(-c3ccc(C(F)(F)F)cc3)c(-c3ccccc3Cl)cnc2c1C(=O)NC1(C)CCS(=O)(=O)CC1` [Example B36], for which the half-maximal inhibitory concentration (IC50) at Human CB1 receptor (setting [1]) is less than 10 nM.

As to `CC1(NC(=O)c2c(S(N)(=O)=O)nn3c(-c4ccc(Cl)cc4)c(-c4ccccc4Cl)cnc23)CC1` [Example B74], the IC50 on Human CB1 receptor (setting [1]) is less than 10 nM. On the same count and under the same terms, the value for `CN(C)NC(=O)c1c(S(N)(=O)=O)nn2c(-c3ccc(C(F)F)cc3)c(-c3ccccc3Cl)cnc12` [Example B84] was 10 to 100 nM.

These data come from US8921380B2, “Pyrazolo[1,5-a] pyrimidine compounds as CB1 receptor antagonist” (Mitsubishi Tanabe Pharma Corporation, priority 2006, dated 2014).
